Laboratory results from patent US6653478B2, “Substituted benzimidazol-2-ones as vasopressin receptor antagonists and neuropeptide Y modulators” (Ortho-McNeil Pharmaceutical, Inc., priority 2000, dated 2003).
Where a name gives a salt, the structure may show the parent alone.

Target: T1, human V1b receptor (Homo sapiens, UniProt P47901)
T1 sequence (P47901 1-424): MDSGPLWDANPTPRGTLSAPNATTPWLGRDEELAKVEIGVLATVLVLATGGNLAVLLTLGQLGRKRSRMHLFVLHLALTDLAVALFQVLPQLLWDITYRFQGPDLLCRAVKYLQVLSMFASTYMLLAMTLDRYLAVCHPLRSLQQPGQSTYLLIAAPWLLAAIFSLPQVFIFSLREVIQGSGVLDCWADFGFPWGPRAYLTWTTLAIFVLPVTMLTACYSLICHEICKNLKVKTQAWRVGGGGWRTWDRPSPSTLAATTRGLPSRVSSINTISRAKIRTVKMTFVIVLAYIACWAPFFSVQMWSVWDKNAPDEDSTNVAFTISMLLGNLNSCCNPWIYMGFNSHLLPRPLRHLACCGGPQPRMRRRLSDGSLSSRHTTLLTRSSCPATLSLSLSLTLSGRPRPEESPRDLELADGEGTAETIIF
Test: V1b functional assay, intracellular calcium mobilization in transfected HEK-293 cells (FLIPR)
Assay type: cell-based
Set-up: expressed in transfected cells; host or cells: HEK-293
Conditions: for IC50: challenge 0.5 nM AVP, read-out: Cell-Based Functional activity V1b IC50
Description: V1a, V1b or V2 Functional Assay
HEK-293 cells were grown in DMEM media supplemented with 10% FBS and glutamine (Gibco BRL, Grand Island, N.Y.). Once transfected the cells were passed biweekly by trypsinization and seeded into 96 well plates at 33,000 cells per well. HEK-293 were transfected with human V1a, V1b or V2 DNA using DMRIE-C reagent from Life Technologies, Inc., Grand Island, N.Y. Cells were tested for their responsiveness to vasopressin 48 hours after transfection. Stable lines were generated by selecting cells grown in culture media containing geneticin (500 μg/ml, Life Technologies).
Intracellular calcium mobilization was measured in HEK-293 cells transfected to express either human V1a, oxytocin or V1b receptors. Cells were plated into black 96-well Packard Clear-View plates 4 to 7 days prior to use. The cells were loaded with fluo-3 AM (Molecular Probes, Inc., Eugene, Oreg.) in buffer (25 mM Hepes, 125 mM NaCl, 1 gm/l glucose, 0.1% BSA, 5 mM KCl, 0.5 mM CaCl2, 0.5 mM MgCl2, pH 7.45) containing Pluronic (Molecular Probes) Cells were incubated with 5 μM fluo-3 AM for 1 hour shielded from light at room temperature. Intracellular fluorescence was measured using FLIPR (fluorometric imaging plate reader; Molecular Devices, Inc., Sunnyvale, Calif.). The FLIPR protocol called for images to be collected at one second intervals with 50 μl of the test compound added after the initial 10 images. An additional 70 images were then taken to detect any compound agonistic activity. FLIPR then added 50 μl of agonist peptide and collected a final 40 images for quantitating compound antagonistic activity. V1a- and V1b-expressing HEK cells were challenged with 1 nM and 0.5 nM AVP, respectively. Oxytocin-expressing HEK cells were challenged with 0.5 nM oxytocin (Peninsula Labs).
The data from the cAMP accumulation and the calcium mobilization assays are expressed as IC50 values as determined from dose response curves.

Compound	IC50 [µM]	inhibition at 30 µM (HEK293, 30 μM compound, read-out: Cell-Based Functional activity V1b % Inh. @ 30) [%]
1-[(N1-Piperidinocarbothioyl-(1-L-carboxymethyl-2-phenylamino)-4-yl]-3-(3-aminopropyl)-1,3-dihydrobenzimidazol-2-one Hydrochloride [Compound 57]	16.8	
CCN(CC)CCn1c(=O)n(C2CCN(C(=S)NC(c3ccccc3)c3ccccc3)CC2)c2ccccc21 [Compound 35, 1-(N1-Piperidinocarbothioyldiphenylmethylamino-4-yl)-3-(2-diethyaminoethyl)-1,3-dihydrobenzimidazol-2-one]	9.99	
CCN(CC)CCn1c(=O)n(C2CCN(C(=S)NC(Cc3ccccc3)C(=O)OC)CC2)c2ccccc21 [Compound 42, 1-(N1-Piperidinocarbothioyl-(2-phenyl-1-L-carboxymethyl)amino-4-yl)-3-(2-diethyaminoethyl)-1,3-dihydrobenzimidazol-2-one]		0
NCCCn1c(=O)n(C2CCN(C(=S)NC(c3ccccc3)c3ccccc3)CC2)c2ccccc21 [Compound 55, 1-[(N1-Piperidinocarbothioyldiphenylmethylamino)-4-yl]-3-(3-aminopropyl)-1,3-dihydrobenzimidazol-2-one Monohydrochloride]	0.318	
N=C(N)NCCCn1c(=O)n(C2CCN(C(=S)NC(c3ccccc3)c3ccccc3)CC2)c2ccccc21 [Compound 59, 1-[(N1-Piperidinocarbothioyldiphenylmethylamino)-4-yl]-3-(3-guanidinopropyl)-1,3-dihydrobenzimidazol-2-one]	6.61	
